# Like-named read-outs stand apart in the source and are kept apart here. Where a SMILES comes first, the peptide text is derived from it. Bridges are numbered along the chain shown (N, C = ends). Where no end group is shown, it is not given here. [ ]: non-standard residue; d: D form. The star is where a group is joined. d(pT) = C[C@H](OP(=O)(O)O)[C@@H](N)C(=O)O; pY = N[C@@H](Cc1ccc(OP(=O)(O)O)cc1)C(=O)O; OBn = c1ccc(CO*)cc1; Bn = c1ccc(C*)cc1
# What was measured:
# [1] = molecular target: human recombinant His-tagged LC3B protein (Homo sapiens, UniProt Q9GZQ8); type: binding
# DU145 cells = type: cell-based, human
# [2] = tested on: LC3-I and LC3-II expression in PC3 cells; test: Western blot of LC3-I / LC3-II in PC3 cells; type: cell-based, human
# [3] = tested on: SQSTM1/p62 expression in PC3 cells; type: cell-based, human
# A549 cells = conditions: 96 h, 5 µM
# MCF-7 cells = conditions: 96 h, 5 µM
# bladder cancer = tested on: bladder cancer; design: method as in PMID 31574376; conditions: combination with autophagy inhibitors; ref [27]; cited from earlier work
compound,measurement,setting,value
CC(=O)N[C@@H](CC(=O)O)C(=O)N[C@@H](CCC(=O)OCc1ccccc1)C(=O)N[C@@H](C(=O)N[C@@H](CCC(=O)O)C(=O)N[C@H](Cc1ccccc1)C(=O)N[C@@H](C(=O)N[C@@H](Cc1ccc(OP(=O)(O)O)cc1)C(=O)N[C@@H](CC(C)C)C(=O)N[C@@H](CCC(=O)O)C(=O)N[C@@H]1CSSC[C@H](C(N)=O)NC(=O)[C@H](CC(=O)O)NC1=O)[C@H](C)OP(=O)(O)O)[C@H](C)OCc1ccccc1 [Pep6] (Ac-DE(OBn)[dT](Bn)E[dF][d(pT)][pY]LE[dC]D[dC]-NH2; disulfide 10-12),Kd compared with LIR2-RavZ,[1],about three times lower
same,effect on DU145 cell viability,DU145 cells,ineffective
same,LC3-I and LC3-II expression,[2],significantly reduced
same,LC3-II/LC3-I ratio,[2],without changing the LC3-II/LC-I ratio
same,LC3-II/LC3-I ratio with trehalose,[2],able to decrease the LC3-II/LC3- ratio compared to trehalose alone
same,p62 expression,[3],significantly increased
same,duration of antitumoral effect,PC3 cells,more stable over time than Pep3
same,effect on PC3 cell viability,PC3 cells,reduction in cell viability
same,relative efficacy on PC3 cell viability,PC3 cells,greater efficacy of Pep6 compared to LIR2-RavZ at all doses used
same,effect on PNT2 cells,PNT2 cells,ineffective
same,cell viability A549,A549 cells,76.7%
same,cell viability MCF-7,MCF-7 cells,80.7%
"DIDEFDLLEGDE [LIR2-RavZ, reference compound]",cell viability A549,A549 cells,81.1%
same,cell viability MCF-7,MCF-7 cells,85.4%
"Cn1cnc(N)c2ncnc1-2 [Pep 3-MA, 3-methyladenine, reference compound]",LC3-I and LC3-II expression,"[2]; PC3, 3-MA 1 mM, compared with Pep3 effect",The same effect on LC3-I and LC3-II expression
CNC(=O)c1ccc(N2C(=S)N(c3ccc(C#N)c(C(F)(F)F)c3)C(=O)C2(C)C)cc1F [enzalutamide],apoptosis of bladder cancer,bladder cancer,effectively induced bladder cancer apoptosis in vitro and in vivo
